Laboratory results: patent US12162884B2, “Solid forms of (R)-N-(2-(5-fluoropyridin-3-yl)-8-isopropylpyrazolo[1,5-a] [1,3,5]triazin-4-yl)-2,3,4,9-tetrahydro-1H-carbazol-3-amine as aryl hydrocarbon receptor (AHR) inhibitors” (Ikena Oncology, Inc., priority 2019, dated 2024)
Converted amounts (≈) assume the structure as drawn. Marks after values point to notes of the source that are not given here.

Assays:
[1] = Solubility studies in water, FaSSIF, FeSSIF and FaSSGF (excess solids in 5 mL medium at 37° C., HPLC; pH, XRPD and NMR of remaining material); type: physicochemical; conditions: for solubility at 30 min / solubility at 120 min / solubility at 24 h: 37 °C, thermodynamic from solid; for pH: pH of solubility sample
Procedure: Simulated fluids were sourced from and prepared according to biorelevant.com using their FaSSIF/FeSSIF/FaSSGF Powder (v1, formerly known as SIF Powder). Samples were prepared by adding excess solids to 5 mL of medium at 37° C. Samples were pulled and filtered at 30 minutes, 120 minutes, and 24 hours and tested for solution concentration using the HPLC parameters described below in Table 13.
The pH of the samples at each timepoint was also measured; pH paper was used at 30 minutes and 120 minutes due to the small sample size, and a pH meter was used at 24 hours. The remaining material from all trials was analyzed by XRPD after 24 hours to determine if any polymorphic form changes had taken place. The remaining material from trials in water was analyzed by NMR after 24 hours to determine if disassociation had taken place.

[2] = Stability studies at 40° C./75% RH (HPLC); type: physicochemical; conditions: for stability / degradation over time: Time 0, 1 week, 2 weeks, 4 weeks
Procedure: Stability studies of compound A, Form B, Compound 1, Form B, Compound 2, Form A, Compound 3, Form B, and Compound 4, Form A was carried out at 40° C./75% RH. Samples were stored in loosely capped vials in a chamber containing a saturated NaCl solution to achieve approximately 75% RH within the chamber. The chamber was stored in a 40° C. oven. Samples were analyzed at Time 0, 1 week, 2 weeks, and 4 weeks using the HPLC parameters described above in Table 13.

| Compound | Solubility ([1]; FaSSIF, 37° C., 30 minutes) [µg/mL] | Solubility ([1]; FaSSIF, 37° C., 120 minutes) [µg/mL] | Solubility ([1]; FaSSIF, 37° C., 24 hours) [µg/mL] | Solubility ([1]; FeSSIF, 37° C., 30 minutes) [µg/mL] | Solubility ([1]; FeSSIF, 37° C., 120 minutes) [µg/mL] | Solubility ([1]; FeSSIF, 37° C., 24 hours) [µg/mL] | pH ([1]; FaSSIF, 30 minutes, pH paper) | pH ([1]; FaSSIF, 120 minutes, pH paper) | pH ([1]; FaSSIF, 24 hours, pH meter) | pH ([1]; FeSSIF, 30 minutes, pH paper) | pH ([1]; FeSSIF, 120 minutes, pH paper) | pH ([1]; FeSSIF, 24 hours, pH meter) | pH ([1]; Water, 120 minutes, pH paper) | pH ([1]; Water, 24 hours, pH meter) | % Area ([2]; 1 Week, HPLC) [% Area] | % Area ([2]; 2 Weeks, HPLC) [% Area] | % Area ([2]; 4 Weeks, HPLC) [% Area] | stability / degradation over time ([2]; HPLC) | also measured |
| --- | --- | --- | --- | --- | --- | --- | --- | --- | --- | --- | --- | --- | --- | --- | --- | --- | --- | --- | --- |
| CC(C)c1cnn2c(N[C@@H]3CCc4[nH]c5ccccc5c4C3)nc(-c3cncc(F)c3)nc12 [Compound 2 Form A] | 78 (≈ 177 µM) | 40 (≈ 90.6 µM) | 14 (≈ 31.7 µM) | 58 (≈ 131 µM) | 160 (≈ 362 µM) | 120 (≈ 272 µM) | 6 | 6 | 5.0 | 5 | 5 | 4.7 | 4 | 2.9 | 99.20 | 98.30 | 98.58 | fairly stable | solubility at 30 min ([1]; FaSSGF, fassgf or other biorelevant, 30 minutes): < 0.1 µg/mL; solubility at 120 min ([1]; FaSSGF, fassgf or other biorelevant, 120 minutes): < 0.1 µg/mL; solubility at 24 h ([1]; FaSSGF, fassgf or other biorelevant, 24 hours): < 0.1 µg/mL; solubility at 24 hours in FeSSIF ([1]; FeSSIF, 37° C., 24 hours, comparison among the tested forms): highest solubility; pH ([1]; FaSSGF, 24 hours, pH meter): 1.2; pH ([1]; Water, 30 minutes, pH paper): 3.5; solubility at 30 min ([1]; water, 30 minutes): < 0.1 µg/mL; solubility at 120 min ([1]; water, 120 minutes): < 0.1 µg/mL; solubility at 24 h ([1]; water, 24 hours): < 0.1 µg/mL; % Area ([2]; Time 0, HPLC): 99.87 % Area; loss of area over four weeks ([2]; four weeks, HPLC): ~1.5 % area |
| CC(C)c1cnn2c(N[C@@H]3CCc4[nH]c5ccccc5c4C3)nc(-c3cncc(F)c3)nc12 [Compound A Form B, (3R)—N-[2-(5-fluoro-3-pyridyl)-8-isopropyl-pyrazolo[1,5-a][1,3,5]triazin-4-yl]-2,3,4,9-tetrahydro-1H-carbazol-3-amine] | 4.9 (≈ 11.1 µM) | 11 (≈ 24.9 µM) | 9.5 (≈ 21.5 µM) | <0.1 | 27 (≈ 61.2 µM) | 21 (≈ 47.6 µM) | 6 | 6 | 6.4 | 5 | 5 | 4.8 | 4.5 | 7.7 | 99.22 | 99.05 | 99.58 | equally stable | Solubility ([1]; FaSSGF, 37° C., 30 minutes): <0.1 µg/mL; Solubility ([1]; FaSSGF, 37° C., 120 minutes): <0.1 µg/mL; Solubility ([1]; FaSSGF, 37° C., 24 hours): <0.1 µg/mL; Solubility ([1]; Water, 37° C., 30 minutes): <0.1 µg/mL; Solubility ([1]; Water, 37° C., 120 minutes): <0.1 µg/mL; Solubility ([1]; Water, 37° C., 24 hours): <0.1 µg/mL; % Area ([2]; Time 0, HPLC, 1 mg/mL): 99.62* % Area |
